The results in this text go back to patent US10624871B2, “Bismuth(III) compounds and methods thereof” (priority 2016, dated 2020).

One series relates to E. coli (NDM-1+). The series can be described thus: Microdilution MIC and MBC assay, checkerboard FICI. As to conditions: for MBC of MER with Bi(III) compound / MIC of MER with Bi(III) compound: Bi(III) compound at 32 μg mL^−1, E. coli (NDM-1+); for FIC Index: MER with Bi(III) compound, E. coli (NDM-1+). It counts as cell-based.
Series [1] is described as follows: Solubility of the bismuth complexes (Table 1). As to conditions: solvent named, or insoluble.
The next series relates to E. coli (VIM-2+). Nature of the series: Microdilution MIC and MBC assay, FICI. It is filed as cell-based. For orientation: In broth dilution the organism is exposed to a series of concentrations in liquid medium.
A further series deals with NDM-1 (Klebsiella pneumoniae, UniProt C7C422). The series can be described thus: IC50 enzyme inhibition assay, MER hydrolysis. It counts as biochemical. As to conditions: Zn2-NDM-1 50 nM, 1 h preincubation at 25° C., 100 μM MER. From the text: (§1) […]. The initial rate were extracted and calculated from each reaction curves.
The target in another series is VIM-2 (Escherichia coli, UniProt Q5U7L7). The series can be described thus: IC50 enzyme inhibition assay, MER hydrolysis. As to conditions: Zn2-VIM-2, 1 h preincubation at 25° C., 100 μM MER. It counts as biochemical.
Source text: as §1

The test system of the next series is E. coli (IMP-4+). Nature of the series: Microdilution MIC and MBC assay, FICI. It counts as cell-based.
A further series relates to K. pneumonia (NDM-1+). Nature of the series: Microdilution MIC and MBC assay, FICI. It is filed as cell-based. As to conditions: for MBC of MER with Bi(III) compound / MIC of MER with Bi(III) compound: Bi(III) compound at 32 μg mL^−1, K. pneumonia (NDM-1+); for FIC Index: MER with Bi(III) compound, K. pneumonia (NDM-1+).
The next series relates to C. freundii (NDM-1+). Nature of the series: Microdilution MIC and MBC assay, FICI. It is filed as cell-based.
Setting [2] is: Bi(III) compound at 32 μg mL−1, E. coli (VIM-2+).
Where [3] appears, read: Bi(III) compound at 32 μg mL−1, E. coli (IMP-4+).
Setting [4] is: Bi(III) compound at 32 μg mL^−1, C. feudii (NDM-1+).

As a reminder, the IC50 is the concentration that gives 50% inhibition.

Sequence of NDM-1 (C7C422 whole entry, looked up): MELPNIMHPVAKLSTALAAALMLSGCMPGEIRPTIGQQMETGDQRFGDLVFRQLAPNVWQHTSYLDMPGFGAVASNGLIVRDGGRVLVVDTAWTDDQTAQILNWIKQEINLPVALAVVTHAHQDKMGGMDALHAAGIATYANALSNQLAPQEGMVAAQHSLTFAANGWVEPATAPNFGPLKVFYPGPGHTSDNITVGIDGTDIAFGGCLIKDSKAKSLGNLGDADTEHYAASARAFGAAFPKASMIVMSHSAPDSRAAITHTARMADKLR

For `O=C(O)c1ccccc1[S-].O=C([O-])c1ccccc1[S-].[Bi+3]` [Complex 7], in the series on E. coli (NDM-1+), the “MBC of MER with Bi(III) compound” value was 2 µg/mL, the “MIC of MER with Bi(III) compound” value turned out to be 1 µg/mL and the “FIC Index” value is given as 0.250. Further, the Solubility result in series [1] is reported as “DMSO”.

In the case of `CNC(=C[N+](=O)[O-])NCCSCc1ccc(CN(C)C)o1.O=C([O-])CC(O)(CC(=O)[O-])C(=O)[O-].[Bi+3]` [RBC, ranitidine bismuth citrate], in the series with E. coli (NDM-1+), the “MBC of MER with Bi(III) compound” value turned out to be 4 µg/mL and the “MIC of MER with Bi(III) compound” value stood at 2 µg/mL.

For `O.O.O=C([O-])CN(CC(=O)[O-])CC(=O)[O-].[Bi+3]` [Complex 11], in the series with E. coli (NDM-1+), the “MBC of MER with Bi(III) compound” value is 8 µg/mL and the “MIC of MER with Bi(III) compound” value worked out at 4 µg/mL.

For the compound `O=[N+]([O-])[O][Bi]([O][N+](=O)[O-])[O][N+](=O)[O-]` [Bi(NO3)3], the “MBC of MER with Bi(III) compound” value with E. coli (VIM-2+) (setting [2]) was found to be 2 µg/mL; in the series on E. coli (IMP-4+) (setting [3]), 8 µg/mL; in the series with E. coli (NDM-1+) it was 4 µg/mL; in the series on K. pneumonia (NDM-1+), 1 µg/mL; in the series with C. freundii (NDM-1+) (setting [4]), 4 µg/mL. Further, the “MIC of MER with Bi(III) compound” value with E. coli (VIM-2+) (setting [2]) was 1 µg/mL; with E. coli (IMP-4+) (setting [3]), 4 µg/mL; in the series on E. coli (NDM-1+) it was 2 µg/mL; in the series with K. pneumonia (NDM-1+), 1 µg/mL; in the series on C. freundii (NDM-1+) (setting [4]), 2 µg/mL. The “FIC Index” value turned out to be 0.063 in the series on E. coli (VIM-2+) (MER with Bi(III) compound, E. coli (VIM-2+)); 0.313 in the series on E. coli (IMP-4+) (MER with Bi(III) compound, E. coli (IMP-4+)); 0.266 in the series with E. coli (NDM-1+); 0.125 in the series on K. pneumonia (NDM-1+); 0.375 in the series on C. freundii (NDM-1+) (MER with Bi(III) compound, C. freundii (NDM-1+)). The IC50 against NDM-1 amounted to 1.89 ± 0.23 µM; against VIM-2, 2.45 ± 0.63 µM.

For the compound `C1=CC2=C(c3ccccc3)c3ccc4[n]3[Bi+][n]3c(ccc3=C(c3ccccc3)C3=NC(=C4c4ccccc4)C=C3)=C(c3ccccc3)C1=N2` [Complex 1], in the series on E. coli (NDM-1+), the “MBC of MER with Bi(III) compound” value turned out to be 8 µg/mL, the “MIC of MER with Bi(III) compound” value turned out to be 4 µg/mL and the “FIC Index” value came out at 0.266. Also, in the series with K. pneumonia (NDM-1+), the “MBC of MER with Bi(III) compound” value is 16 µg/mL, the “MIC of MER with Bi(III) compound” value turned out to be 4 µg/mL and the “FIC Index” value came to 0.375.

In the case of `O=[N+]([O-])[O-].O=[N+]([O-])[O-].[Bi+3].c1ccc(-c2ccccn2)nc1.c1ccc(-c2ccccn2)nc1` [Complex 16], in the series on E. coli (NDM-1+), the “MBC of MER with Bi(III) compound” value worked out at 8 µg/mL and the “MIC of MER with Bi(III) compound” value came out at 2 µg/mL.

bismuth subgallate [Complex 14]: in the series on E. coli (NDM-1+), the “MBC of MER with Bi(III) compound” value was found to be 8 µg/mL, the “MIC of MER with Bi(III) compound” value worked out at 4 µg/mL and the “FIC Index” value is 0.375. For the same compound, in series [1], the Solubility result was “Insoluble”.

Turning to `[Bi+3].[O-]c1c([O-])c(Br)c(Br)c(Br)c1Br.[O-]c1c([O-])c(Br)c(Br)c(Br)c1Br` [Complex 13], in the series on E. coli (NDM-1+), the “MBC of MER with Bi(III) compound” value amounted to 2 µg/mL, the “MIC of MER with Bi(III) compound” value amounted to 1 µg/mL and the “FIC Index” value was 0.250. In addition, the Solubility entry in series [1] is given as “DMSO”.

For `NCC(=O)[O-].NCC(=O)[O-].NCC(=O)[O-].[Bi+3]` [Complex 18], in the series on E. coli (NDM-1+), the “MBC of MER with Bi(III) compound” value stood at 16 µg/mL and the “MIC of MER with Bi(III) compound” value was found to be 8 µg/mL.
